{"source": "patent US10653680B2", "about": "“Treatment of impulsivity-related disorders” (OXFORD UNIVERSITY INNOVATION LIMITED, priority 2016, dated 2020)", "key": {"rats [1]": {"system": "rats", "test": "5 Choice Serial Reaction Time Task (5-CSRTT)", "format": "in vivo, rats (males; Long Evans)", "protocol": "(§1) Testing was carried out in Vancouver (Canada) using rats (males; Long Evans from Charles River) which were given at least two weeks to acclimatise to the animal facility. They were housed in pairs on a 12 hour reverse light-dark cycle (lights off at 7 am). In the second week of acclimatisation, rats were handled briefly each day. […] For each task, there was then a habituation session to the operant boxes before training began.\n(§2) Ebselen, cocaine and 2,5-dimethoxy-4-iodoamphetamine (DOI) were obtained from Sigma Aldrich, and MDL 100,907 was obtained from Tocris. Ebselen was dissolved in 0.5M DMSO and made up to injection volume (8 ml/kg) using 4% cyclodextrin. Cocaine and DOI were dissolved in 0.9% saline. MDL 100,907 was dissolved in 0.9% saline and the pH was adjusted to 6.25 using 1M NaOH and 0.1M HCl.\n(§3) All data for the cognitive tasks are presented as mean+SEM change from baseline: • performance on drug day−performance on the previous day\n(§4) The data were analysed with repeated measures ANOVA with dose as a within-subject factor. Where appropriate, post-hoc analysis was performed using Student's paired t-test.\nThis test was performed as described previously (Bari et al., Nature Protocols, 2008, 3(5), 759-767; Robbins, Psychopharmacology, 2002, 163(3), 362-380).\nFourteen rats were trained to respond to brief visual cues presented in one of five target areas with an inter-trial interval of 5 seconds. On the day of testing in the presence of ebselen, the inter-trial interval was lengthened to 7 seconds to cause a reliable increase in premature responding.\nEbselen and vehicle were administered by intraperitoneal (i.p.) injection 1 hour prior to testing. Three doses of ebselen (2, 5 or 10 mg/kg) were studied, administration being in a random order that was determined by a Latin square design. Rats were run five days a week, with the treatment day falling on day three.\nFollowing ebselen, 3 doses of MDL 100,907 (0.01, 0.03 and 0.1 mg/kg, i.p.) were tested in a Latin square design with the first injection occurring one week after the final injection of ebselen. MDL 100,907 is a selective 5-HT2A antagonist. Rats were similarly run five days a week with injections falling on the third day, and the lengthened inter-trial interval was used only on the drug-administration day.\n(§5) The Latin square design (for both the 5-CSRTT and rGT experiments) was counterbalanced, based on performance in the last training day of each task. A one week wash-out period was given between drug-administration days. A baseline session was performed both the day before and the day after treatment to ensure stable off-drug performance."}, "[2]": {"details": "WO 2012/107735; cited from earlier work"}, "rats [3]": {"system": "rats", "test": "Rodent Gambling Task (rGT)", "format": "in vivo, rats (males; Long Evans)", "protocol": "as §1, §2, §3, §4, §5\nThis was performed as described previously (Zeeb et al; Neuropsychopharmacology, 2009, 34(10), 2329-2343), and is illustrated schematically in FIG. 2. Twenty one rats were trained to respond in standard 5-CSRTT boxes. Once reliable responding was established, different reward contingencies were associated with four nose-poke apertures (the central aperture was not used in this task). In each case, the reward size and probability of outcome differed between the choices. When no reward was delivered, a fixed-length time-out was delivered. The length of this time-out was varied between choices, with the longest time-out being associated with the largest, least likely reward. […] On the other 20% of occasions, a 10 second time-out was initiated. Once stable performance was achieved, rats were administered ebselen (2, 5 and 10 mg/kg i.p.) or vehicle in a Latin square design."}, "rats [4]": {"system": "rats", "test": "5-CSRTT, stimulant (cocaine)-induced responding", "format": "in vivo, rats (males; Long Evans)", "protocol": "as §1, §2, §3\nIn experiments investigating the effect of ebselen on cocaine and DOI, data were analysed with a two-way ANOVA with ebselen and cocaine/DOI as between-subject factors. If an interaction was detected, this was further investigated using simple main effects analysis. All analyses were conducted using SPSS 22 with p<0.05 considered significant.\nTo assess the effect of ebselen on stimulant-induced responding, ebselen (10 mg/kg) or vehicle was administered 1 hour prior to cocaine (15 mg/kg i.p.), which in turn was administered 10 minutes prior to testing. Treatments were administered using according to a Latin square design. The inter-trial interval for these sessions was 5 seconds. Two rats were excluded from the data due to increasing levels of omissions across all days of this portion of the study. The experiment was repeated using 0.03 mg/kg MDL 100,907 instead of ebselen."}}}
{"smiles": "O=c1c2ccccc2[se]n1-c1ccccc1", "note": "[Ebselen, 2-phenyl-1,2-benzisoselenazol-3(2H)-one]", "values": [{"measurement": "premature responding", "setting": "rats [1]; ebselen 2 mg/kg i.p. vs vehicle, p=0.158", "result": "No effect"}, {"measurement": "premature responding", "setting": "rats [1]; ebselen 5 mg/kg i.p. vs vehicle, p=0.011", "result": "statistically significant decreases"}, {"measurement": "premature responding", "setting": "rats [1]; ebselen 10 mg/kg i.p. vs vehicle, p=0.032", "result": "statistically significant decreases"}, {"measurement": "premature responding", "setting": "rats [1]; ebselen 2, 5, 10 mg/kg i.p. 1 hour prior to testing, vs vehicle, ANOVA p=0.049, inter-trial interval 7 s", "result": "decreased premature responding in a dose-dependent manner"}, {"measurement": "any other measures of the 5-CSRTT", "setting": "rats [1]; ebselen 2, 5, 10 mg/kg i.p., p=0.192-0.805", "result": "No effects"}, {"measurement": "transfer across the blood/brain barrier", "setting": "[2]", "result": "capable of transferring across the blood/brain barrier"}, {"measurement": "premature responses", "setting": "rats [3]; ebselen 2 mg/kg i.p. vs vehicle, p=0.052", "result": "decreased premature responses"}, {"measurement": "response latency (increase in time to respond)", "setting": "rats [3]; ebselen 2 mg/kg, paired t-test, p=0.056", "result": "trend"}, {"measurement": "reward latency (time taken to collect rewards)", "setting": "rats [3]; ebselen 2 mg/kg, p=0.024", "result": "significant increase"}, {"measurement": "premature responses", "setting": "rats [3]; ebselen 5 mg/kg i.p. vs vehicle, p=0.077", "result": "decreased trend"}, {"measurement": "response latency (increase in time to respond)", "setting": "rats [3]; ebselen 5 mg/kg, paired t-test, p=0.028", "result": "significant"}, {"measurement": "reward latency", "setting": "rats [3]; ebselen 5 mg/kg, p=0.069", "result": "trend increase"}, {"measurement": "premature responses", "setting": "rats [3]; ebselen 10 mg/kg i.p. vs vehicle, p=0.028", "result": "decreased premature responses"}, {"measurement": "response latency", "setting": "rats [3]; ebselen 10 mg/kg, paired t-test, p=0.246", "result": "no significant effect"}, {"measurement": "reward latency (time taken to collect rewards)", "setting": "rats [3]; ebselen 10 mg/kg, p=0.005", "result": "significant increase"}, {"measurement": "reward latency", "setting": "rats [3]; ebselen 2, 5, 10 mg/kg i.p., overall ANOVA, p=0.062", "result": "no effect"}, {"measurement": "response latency", "setting": "rats [3]; ebselen 2, 5, 10 mg/kg i.p., overall ANOVA, p=0.090", "result": "no effect"}, {"measurement": "number of trials completed during the sessions", "setting": "rats [3]; ebselen 2, 5, 10 mg/kg i.p., p=0.546", "result": "no effect"}, {"measurement": "choice behaviour", "setting": "rats [3]; ebselen 2, 5, 10 mg/kg i.p., p=0.596", "result": "no effect"}, {"measurement": "premature responses", "setting": "rats [3]; ebselen 2, 5 and 10 mg/kg i.p. overall, p=0.088", "result": "overall trend to decreased premature responses"}, {"measurement": "any other measure", "setting": "rats [4]; ebselen 10 mg/kg / cocaine 15 mg/kg experiment", "result": "No effects"}, {"measurement": "reversal of the cocaine effect on omissions", "setting": "rats [4]; ebselen 10 mg/kg before cocaine 15 mg/kg, p=0.463", "result": "not reversed"}, {"measurement": "reversal of the cocaine effect on accuracy", "setting": "rats [4]; ebselen 10 mg/kg before cocaine 15 mg/kg, p=0.969, interaction p=0.278", "result": "not reversed"}, {"measurement": "cocaine-induced premature responses", "setting": "rats [4]; ebselen 10 mg/kg i.p. 1 hour prior to cocaine 15 mg/kg i.p., p=0.023", "result": "reduced cocaine-induced premature responses"}, {"measurement": "number of premature responses, ebselen/cocaine vs vehicle/vehicle treatment", "setting": "rats [4]; ebselen 10 mg/kg, cocaine 15 mg/kg i.p., p=0.909", "result": "did not differ"}]}
